Measurements reported in patent publication US7883730B2, “Rumen protected lysine” (Zinpro Corporation, priority 2007, dated 2011).

System: Lactating Holstein Dairy Cows
Test: Feeding evaluation: lactation responses to N-Benzylidene-L-Lysine
Format: in vivo
Text: Evaluation of Feeding N-Benzylidene-L-Lysine Using Lactating Holstein Dairy Cows
All cows received the same base diet. Cows were assigned to one of two treatments: (1) control, (2) control+N-Benzylidene-L-Lysine (TrTA). N-Benzylidene-L-Lysine was supplemented at a rate to supply 40 g of Lys when cows consumed 53.0 lb dry matter/d. The control diet was formulated to be deficient of lysine. “P” refers to the probability value (p-value).

[1] = control diet deficient of lysine plus 40 g Lys from N-Benzylidene-L-Lysine, 14 days

Work on `NCCCC[C@H](N=Cc1ccccc1)C(=O)O` [Trt A, N-Benzylidene-L-Lysine] yielded an ECM [1] of 81.3 lbs/d, an FCM [1] of 81.2 lbs/d and a Milk [1] of 77.3 lbs/d. The ECM/Feed (control diet plus 40 g Lys from N-Benzylidene-L-Lysine, 14 days) was 1.53, the “Fat, %” value (milk fat content, control diet plus 40 g Lys from N-Benzylidene-L-Lysine, 14 days) was 3.81% and the “Fat, lbs/d” value (milk fat yield, control diet plus 40 g Lys from N-Benzylidene-L-Lysine, 14 days) was 2.94 lbs/d. For the same molecule, the “Protein, %” value (milk protein content, control diet plus 40 g Lys from N-Benzylidene-L-Lysine, 14 days) was 3.14%, the “Protein, lbs/d” value (milk protein yield, control diet plus 40 g Lys from N-Benzylidene-L-Lysine, 14 days) was 2.41 lbs/d and the “Lactation response versus control (conclusion in words)” value (versus lysine-deficient control diet, from Table 1 data) was “produced more milk, more protein and more fat”.
